Among the data in US20230339970A1, “CASEIN KINASE 1 DELTA MODULATORS” (priority 2020, published 2023) are IC50 values, retold here.

The target of assay [1] is T1, human CSNK1D (Homo sapiens, UniProt P48730).
T1 construct: expressed in transfected cells
Kind of assay: Whole Cell nBRET CSNK1D Binding Assay. The following applies: living CHO cells stably expressing human CSNK1D tagged with nanoluciferase; NanoBret tracer 130 nM; 2 hours at 37 C.

Assay [2] concerns the target T2, human recombinant GST cleaved CSNK1D (Homo sapiens, UniProt P48730).
T2 construct: GST (cleaved yes); purchased University of Dundee clone DU 19064
The experiment in a line: Purified Enzyme Assay (ADP-Glo CSNK1D Kinase Assay). It counts as biochemical. The settings on record: 2 nM CSNK1D; peptide substrate 150 μM; ATP 20 μM; 45 minutes at room temperature. As to the method:
In this assay, CSNK1D phosphorylates a substrate peptide PLSRTL-pS-VASLPGL in the presence of ATP. […] This assay monitors CSNK1D kinase activity by measuring the amount of ADP produced in the assay.
The substrate mix is added to each well of a low volume, 384-well, white opaque plate. Test compounds were diluted in HBSS and added in a dose-response to the plate.
The total volume of each reaction is 5 ul (2 μL of substrate mix, 1 μL of diluted compounds, and 2 μL of human recombinant CSNK1D). The plates are incubated for 45 minutes at room temperature.
ADP was quantified using the ADP-Glo™ Kinase Assay. ADP-Glo Reagent (5 μL) was added to each well. After a 1 hour incubation at room temperature, Kinase Detection Reagent (10 μL) was added to each well and incubated for 30 minutes. […] The raw data from the Envision is used to calculate percent activity.
A general note: In ADP-Glo the light output rises with the ADP produced.

pIC50: −log10 of the molar value.

T2 sequence (P48730 whole entry): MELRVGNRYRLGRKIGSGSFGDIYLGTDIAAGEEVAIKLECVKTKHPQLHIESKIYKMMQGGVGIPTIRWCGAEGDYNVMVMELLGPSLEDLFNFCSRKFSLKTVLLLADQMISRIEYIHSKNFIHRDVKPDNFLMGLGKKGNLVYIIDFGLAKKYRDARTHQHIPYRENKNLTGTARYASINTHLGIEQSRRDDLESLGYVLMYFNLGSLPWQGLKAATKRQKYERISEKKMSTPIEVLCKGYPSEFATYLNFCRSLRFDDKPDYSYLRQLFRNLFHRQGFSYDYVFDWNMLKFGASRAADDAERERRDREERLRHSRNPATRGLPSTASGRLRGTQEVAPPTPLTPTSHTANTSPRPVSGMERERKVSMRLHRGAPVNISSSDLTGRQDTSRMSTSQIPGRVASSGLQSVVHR
T1 sequence (P48730 whole entry): as above

As usually defined, the pIC50 is the IC50 on a negative log10 scale, so that one unit is a factor of ten. With `Cc1cc(-c2c(-c3ccc(F)cn3)nn3c2COCC3)c2cn[nH]c2n1` [Example 79, 2-(5-Fluoro-2-pyridyl)-3-(6-methyl-1H-pyrazolo[3,4-b]pyridin-4-yl)-6,7-dihydro-4H-pyrazolo[5,1-c][1,4]oxazine], the pIC50 in assay [1] is 6.64; in assay [2] it was 8.15.

Consider `Cc1nc2[nH]ncc2c(-c2c(-c3ccc(F)cn3)nn3c2CC[C@]2(C3)CC2(F)F)c1F` (single isomer, unassigned) [Example 332, (*R)-2,2-Difluoro-3′-(5-fluoro-6-methyl-1H-pyrazolo[3,4-b]pyridin-4-yl)-2′-(5-fluoropyridin-2-yl)-4′,5′-dihydro-7′H-spiro[cyclopropane-1,6′-pyrazolo[1,5-a]pyridine]], for which the negative-log IC50 (pIC50) in assay [1] is 7.92; in assay [2], 9.00.

Regarding `[2H]C([2H])([2H])C1(C([2H])([2H])[2H])Cn2nc(-c3ccc(F)cn3)c(-c3cc(C(F)F)nc4[nH]ncc34)c2CO1` [Example 402, 3-(6-(Difluoromethyl)-1H-pyrazolo[3,4-b]pyridin-4-yl)-2-(5-fluoropyridin-2-yl)-6,6-bis(methyl-d3)-6,7-dihydro-4H-pyrazolo[5,1-c][1,4]oxazine], the pIC50 in assay [1] is 7.12; in assay [2], 8.30.

For the compound `CC1CCCc2c(-c3ccnc4[nH]ncc34)c(-c3ccc(F)cc3)nn21` (single isomer, unassigned) [Example 39, (*R)-4-[2-(4-Fluorophenyl)-7-methyl-4,5,6,7-tetrahydropyrazolo[1,5-a]pyridin-3-yl]-1H-pyrazolo[3,4-b]pyridine], the values for the pIC50 in assay [1] and in assay [2] were 7.41 and 8.40, respectively.

As for `Fc1ccc(-c2nn3c(c2-c2ccnc4[nH]ncc24)CC(F)(F)C3)cc1` [Example 230, 4-[5,5-Difluoro-2-(4-fluorophenyl)-4,6-dihydropyrrolo[1,2-b]pyrazol-3-yl]-1H-pyrazolo[3,4-b]pyridine], the negative-log IC50 (pIC50) in assay [1] is 7.13; in assay [2], 8.30.

Consider `Fc1ccc(-c2nn3c(c2-c2ccnc4[nH]ncc24)CCC32CC2)nc1` [Example 249, 2-(5-Fluoro-2-pyridyl)-3-(1H-pyrazolo[3,4-b]pyridin-4-yl)spiro[4,5-dihydropyrrolo[1,2-b]pyrazole-6,1′-cyclopropane]], for which the results for the pIC50 in assay [1] and in assay [2] were 6.71 and 7.77, respectively.

On to `CCn1ncc2cc(-c3c(-c4ccc(F)cn4)nn4c3CO[C@@H](C)C4)cnc21` [Example 371, (S)-3-(1-Ethyl-1H-pyrazolo[3,4-b]pyridin-5-yl)-2-(5-fluoropyridin-2-yl)-6-methyl-6,7-dihydro-4H-pyrazolo[5,1-c][1,4]oxazine], for which the pIC50 was 5.11 in assay [1] and 6.39 in assay [2].

Take `Cc1cc(-c2c(-c3ccc(F)cn3)nn3c2OCCC3)c2cn[nH]c2n1` [Example 187, 2-(5-Fluoropyridin-2-yl)-3-(6-methyl-1H-pyrazolo[3,4-b]pyridin-4-yl)-6,7-dihydro-5H-pyrazolo[5,1-b][1,3]oxazine]: the pIC50 in assay [1] was 6.48; in assay [2], 8.10.

With `CC1(CF)CCc2c(-c3ccn4nccc4c3)c(-c3ccc(F)cn3)nn2C1` (single isomer, unassigned) [Example 289, (*R)-5-[6-(Fluoromethyl)-2-(5-fluoro-2-pyridyl)-6-methyl-5,7-dihydro-4H-pyrazolo[1,5-a]pyridin-3-yl]pyrazolo[1,5-a]pyridine], the results for the pIC50 in assay [1] and in assay [2] were 6.94 and 7.03, respectively.

`Fc1ccc(-c2nn3c(c2-c2ccnc4[nH]ncc24)C[C@H](F)C3)cc1` [Example 11, (S)-4-(5-Fluoro-2-(4-fluorophenyl)-5,6-dihydro-4H-pyrrolo[1,2-b]pyrazol-3-yl)-1H-pyrazolo[3,4-b]pyridine]: the pIC50 was 8.40 in assay [1] and 9.00 in assay [2].

For `Cc1nc2[nH]ncc2c(-c2c(-c3ccc(F)cn3)nn3c2CC[C@H]2[C@@H]3C2(F)F)c1F` (single isomer, unassigned) [Example 357, (5a*S,6a*R)-6,6-Difluoro-3-(5-fluoro-6-methyl-1H-pyrazolo[3,4-b]pyridin-4-yl)-2-(5-fluoropyridin-2-yl)-5,5a,6,6a-tetrahydro-4H-cyclopropa[e]pyrazolo[1,5-a]pyridine], the figures for the pIC50 in assay [1] and in assay [2] were 7.40 and 8.10, respectively.

`Cc1cc(-c2c(-c3ccc(F)cc3)nn3c2CO[C@@H](C)C3)c2cn[nH]c2n1` (single isomer, unassigned) [Example 83, (*S)-2-(4-Fluorophenyl)-6-methyl-3-(6-methyl-1H-pyrazolo[3,4-b]pyridin-4-yl)-6,7-dihydro-4H-pyrazolo[5,1-c][1,4]oxazine]: the pIC50 in assay [1] is 7.47; in assay [2] it was 8.52.

Consider `Cc1nc2[nH]ncc2c(-c2c(-c3ccc(F)cn3)nn3c2COC(C)(C)C3)c1F` [Example 157, 3-(5-Fluoro-6-methyl-1H-pyrazolo[3,4-b]pyridin-4-yl)-2-(5-fluoro-2-pyridyl)-6,6-dimethyl-4,7-dihydropyrazolo[5,1-c][1,4]oxazine], for which the pIC50 in assay [1] was 7.14; in assay [2], 8.10.

`CC1(C)Cn2nc(-c3ccc(F)cn3)c(-c3ccn4ncnc4c3)c2CO1` [Example 385, 3-([1,2,4]Triazolo[1,5-a]pyridin-7-yl)-2-(5-fluoropyridin-2-yl)-6,6-dimethyl-6,7-dihydro-4H-pyrazolo[5,1-c][1,4]oxazine]: the pIC50 in assay [1] is 5.80; in assay [2] it was 7.30.

On to `Cn1ncc2c(-c3c(-c4ccc(F)cn4)nn4c3COC(C)(C)C4)ccnc21` [Example 153, 2-(5-Fluoro-2-pyridyl)-6,6-dimethyl-3-(1-methylpyrazolo[3,4-b]pyridin-4-yl)-4,7-dihydropyrazolo[5,1-c][1,4]oxazine], for which the pIC50 in assay [1] was 5.43; in assay [2], 6.75.

For `Cc1cc(-c2c(-c3ccc(F)cn3)nn3c2CC(C)(C)C3)c2cn[nH]c2n1` [Example 238, 4-[2-(5-Fluoro-2-pyridyl)-5,5-dimethyl-4,6-dihydropyrrolo[1,2-b]pyrazol-3-yl]-6-methyl-1H-pyrazolo[3,4-b]pyridine], the pIC50 is 7.64 in assay [1] and 8.70 in assay [2].

For the compound `Cc1cc(-c2c(-c3ccc(F)cn3)nn3c2CC[C@H]3C)c2cn[nH]c2n1` [Example 21, 4-[(6R)-2-(5-Fluoro-2-pyridyl)-6-methyl-5,6-dihydro-4H-pyrrolo[1,2-b]pyrazol-3-yl]-6-methyl-1H-pyrazolo[3,4-b]pyridine], the pIC50 is 6.45 in assay [1] and 7.85 in assay [2].

As for `C[C@@H]1CCc2c(-c3ccnc4[nH]ncc34)c(-c3ccc(F)cc3)nn21` [Example 16, 4-[(6R)-2-(4-Fluorophenyl)-6-methyl-5,6-dihydro-4H-pyrrolo[1,2-b]pyrazol-3-yl]-1H-pyrazolo[3,4-b]pyridine], the pIC50 is 7.29 in assay [1] and 8.40 in assay [2].

With `CC1(C)COc2c(-c3ccnc4cc[nH]c34)c(-c3ccc(F)cc3)nn2C1` [Example 448, 2-(4-Fluorophenyl)-6,6-dimethyl-3-(1H-pyrrolo[3,2-b]pyridin-7-yl)-5,7-dihydropyrazolo[5,1-b][1,3]oxazine], the pIC50 in assay [1] was 6.71; in assay [2] it was 7.55.

Turning to `Cc1cc(-c2c(-c3ccc(F)cn3)nn3c2COC(C)(C)C3)c2c(C)n[nH]c2n1` [Example 156, 3-(3,6-Dimethyl-1H-pyrazolo[3,4-b]pyridin-4-yl)-2-(5-fluoro-2-pyridyl)-6,6-dimethyl-4,7-dihydropyrazolo[5,1-c][1,4]oxazine], the values for the pIC50 in assay [1] and in assay [2] were 7.06 and 8.30, respectively.

As to `Cc1nc(-c2c(-c3ccc(F)cc3)nn3c2CCC3)c2cn[nH]c2n1` [Example 225, 4-[2-(4-Fluorophenyl)-5,6-dihydro-4H-pyrrolo[1,2-b]pyrazol-3-yl]-6-methyl-1H-pyrazolo[3,4-d]pyrimidine], the negative logarithm of the IC50 (pIC50) in assay [1] was 7.06; in assay [2] it was 8.10.

Consider `CCC(=O)Nc1cc(-c2c(-c3ccc(F)cn3)nn3c2OCC(C)C3)ccn1` (centres unmarked) [Example 442, N-(4-(2-(5-Fluoropyridin-2-yl)-6-methyl-6,7-dihydro-5H-pyrazolo[5,1-b][1,3]oxazin-3-yl)pyridin-2-yl)propionamide], for which the pIC50 in assay [1] was 7.64; in assay [2], 8.52.

As to `Cc1n[nH]c2nccc(-c3c(-c4ccc(F)cc4)nn4c3OCC3(C4)CC3(F)F)c12` (single isomer, unassigned) [Example 472, (*S)-2,2-Difluoro-2′-(4-fluorophenyl)-3′-(3-methyl-1H-pyrazolo[3,4-b]pyridin-4-yl)-5′H,7′H-spiro[cyclopropane-1,6′-pyrazolo[5,1-b][1,3]oxazine]], the pIC50 in assay [1] is 6.22; in assay [2] it was 7.16.

Take `Fc1ccc(-c2nn3c(c2-c2ccnc4[nH]ncc24)COCC3)nc1` [Example 78, 2-(5-Fluoro-2-pyridyl)-3-(1H-pyrazolo[3,4-b]pyridin-4-yl)-6,7-dihydro-4H-pyrazolo[5,1-c][1,4]oxazine]: the pIC50 in assay [1] was 6.47; in assay [2], 7.82.

For the compound `Fc1ccc(-c2nn3c(c2-c2c(F)cnc4[nH]ncc24)CC2(C3)CC2(F)F)nc1` (single isomer, unassigned) [Example 258, (*S)-2,2-Difluoro-3′-(5-fluoro-1H-pyrazolo[3,4-b]pyridin-4-yl)-2′-(5-fluoropyridin-2-yl)-4′H,6′H-spiro[cyclopropane-1,5′-pyrrolo[1,2-b]pyrazole]], the pIC50 in assay [1] is 7.15; in assay [2], 8.22.
